From PubChem BioAssay AID248 (DTP/NCI, 2004)
Several values for one entry are separate records, joined by “and”; a condition that tells them apart may be missing. Identical values can stand only once. Inconclusive results and toxic doses are left out. Cut-off read from the data, not from the text of the source: active = T/C of 150% or more; inactive = T/C below 125%.

Tested on: L1210 leukemia ip in BDF1 mice, survival T/C
Assay: NCI In Vivo Anticancer Drug Screen. Data for tumor model L1210 Leukemia (intraperitoneal) in B6D2F1 (BDF1) mice
Conditions: endpoint: mean survival time, higher = longer survival
Outline: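 Mice bearing the transplanted tumor received compound or vehicle. Survival of the treated group was divided by that of the vehicle-treated control group to give the ratio.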

[1] = dose: 100.0 mg/kg/injection, schedule: Q04DX003 (ip), vehicle: Klucel (hydroxypropylcellulose) (HPC)
[2] = dose: 200.0 mg/kg/injection, schedule: Q04DX003 (ip), vehicle: Klucel (hydroxypropylcellulose) (HPC)
[3] = dose: 400.0 mg/kg/injection, schedule: Q04DX003 (ip), vehicle: Klucel (hydroxypropylcellulose) (HPC)
[4] = dose: 100.0 mg/kg/injection, schedule: Q01DX009 (ip), vehicle: saline
[5] = dose: 200.0 mg/kg/injection, schedule: Q01DX009 (ip), vehicle: saline
[6] = dose: 100.0 mg/kg/injection, schedule: Q04DX003 (ip), vehicle: saline
[7] = dose: 100.0 mg/kg/injection, schedule: Q04DX003 (ip), vehicle: saline with Tween-80
[8] = dose: 200.0 mg/kg/injection, schedule: Q04DX003 (ip), vehicle: saline with Tween-80
[9] = dose: 400.0 mg/kg/injection, schedule: Q04DX003 (ip), vehicle: saline with Tween-80
[10] = dose: 100.0 mg/kg/injection, schedule: Q01DX001 (ip), vehicle: saline
[11] = dose: 400.0 mg/kg/injection, schedule: Q01DX001 (ip), vehicle: saline
[12] = dose: 200.0 mg/kg/injection, schedule: Q01DX001 (ip), vehicle: saline
[13] = dose: 100.0 mg/kg/injection, schedule: Q01DX009 (ip), vehicle: Klucel (hydroxypropylcellulose) (HPC)
[14] = dose: 200.0 mg/kg/injection, schedule: Q01DX009 (ip), vehicle: Klucel (hydroxypropylcellulose) (HPC)

Measured: T/C

O=c1[nH]c2ccc([As](O)O)cc2[nH]1
inactive: dose: 12.5 mg/kg/injection, schedule: Q01DX009 (ip), vehicle: water 109 % of control | dose: 25.0 mg/kg/injection, schedule: Q01DX009 (ip), vehicle: water 110 % of control | dose: 50.0 mg/kg/injection, schedule: Q01DX001 (ip), vehicle: water 98 % of control | dose: 50.0 mg/kg/injection, schedule: Q01DX009 (ip), vehicle: water 124 % of control | dose: 100.0 mg/kg/injection, schedule: Q01DX001 (ip), vehicle: water 101 % of control | dose: 200.0 mg/kg/injection, schedule: Q01DX001 (ip), vehicle: water 104 % of control | dose: 400.0 mg/kg/injection, schedule: Q01DX001 (ip), vehicle: water 114 % of control

CCCCCCCCCCCCCCCCc1ccc(CCCC(=O)O)cc1
inactive: [1] 91 % of control | [2] 92 % of control | [3] 91 % of control

Cc1ccc(C(=O)/C=C\c2ccc(Cl)c(Cl)c2)cc1
inactive: dose: 100.0 mg/kg/injection, schedule: Q04DX002 (ip), vehicle: Klucel (hydroxypropylcellulose) (HPC) 92 % of control | dose: 200.0 mg/kg/injection, schedule: Q04DX002 (ip), vehicle: Klucel (hydroxypropylcellulose) (HPC) 106 % of control | dose: 400.0 mg/kg/injection, schedule: Q04DX002 (ip), vehicle: Klucel (hydroxypropylcellulose) (HPC) 95 % of control

CCC(=O)OC1CC2(C)C(=CC1=O)CCC1C2CCC2(C)C(OC(=O)CC)CCC12 (centres undefined)
inactive: [4] 97 % of control | [5] 96 % of control | dose: 400.0 mg/kg/injection, schedule: Q01DX009 (ip), vehicle: saline 96 % of control

O=C(O)c1ccccc1OCc1cc(=O)[nH]c(=O)[nH]1
inactive: [6] 95 % of control | dose: 200.0 mg/kg/injection, schedule: Q04DX003 (ip), vehicle: saline 95 % of control | dose: 400.0 mg/kg/injection, schedule: Q04DX003 (ip), vehicle: saline 98 % of control

Cn1ncc(=O)[nH]c1=O
inactive: dose: 50.0 mg/kg/injection, schedule: Q01DX009 (ip), vehicle: saline 100 % of control | [4] 108 % of control | [5] 103 % of control

CC12CCC(C(C(=O)O)C1=O)C2(C)C (centres undefined)
inactive: [7] 103 % of control | [8] 97 % of control | [9] 100 % of control

CC1CCC(=O)OCCCC(=O)C1 (centres undefined)
inactive: [10] 93 % of control | [11] 95 % of control

CC(=O)Oc1cc([N+](=O)[O-])ccc1C(=O)O
inactive: [7] 96 % of control | [8] 91 % of control | [9] 94 % of control

Cn1nc(SCc2ccccc2)c(=O)[nH]c1=O
inactive: dose: 75.0 mg/kg/injection, schedule: Q01DX001 (ip), vehicle: saline 97 % of control | dose: 150.0 mg/kg/injection, schedule: Q01DX001 (ip), vehicle: saline 104 % of control

O=C(Cc1ccccc1)C(c1ccccc1)C(c1ccccc1)c1ccccc1 (centres undefined)
inactive: dose: 100.0 mg/kg/injection, schedule: Q04DX002 (ip), vehicle: saline with Tween-80 96 % of control | dose: 200.0 mg/kg/injection, schedule: Q04DX002 (ip), vehicle: saline with Tween-80 111 % of control | dose: 400.0 mg/kg/injection, schedule: Q04DX002 (ip), vehicle: saline with Tween-80 107 % of control

CC(=O)Nc1ccc2c(c1)C(c1ccccc1)=NCC(=O)N2
inactive: [10] 103 % of control | dose: 100.0 mg/kg/injection, schedule: Q01DX Z (ip), vehicle: carboxymethylcellulose (CMC) 107 % of control | dose: 100.0 mg/kg/injection, schedule: Q01DX Z (ip), vehicle: methylcellulose (MC) 100 % of control | dose: 150.0 mg/kg/injection, schedule: Q01DX Z (ip), vehicle: carboxymethylcellulose (CMC) 112 % of control and 114 % of control | dose: 150.0 mg/kg/injection, schedule: Q01DX Z (ip), vehicle: methylcellulose (MC) 103 % of control | [12] 103 % of control | dose: 225.0 mg/kg/injection, schedule: Q01DX Z (ip), vehicle: carboxymethylcellulose (CMC) 100 % of control | dose: 225.0 mg/kg/injection, schedule: Q01DX Z (ip), vehicle: methylcellulose (MC) 107 % of control | dose: 337.0 mg/kg/injection, schedule: Q01DX Z (ip), vehicle: carboxymethylcellulose (CMC) 97 % of control | dose: 337.0 mg/kg/injection, schedule: Q01DX Z (ip), vehicle: methylcellulose (MC) 109 % of control | [11] 91 % of control | dose: 600.0 mg/kg/injection, schedule: Q01DX001 (ip), vehicle: saline 98 % of control | dose: 1200.0 mg/kg/injection, schedule: Q01DX001 (ip), vehicle: saline 120 % of control | dose: 2400.0 mg/kg/injection, schedule: Q01DX001 (ip), vehicle: saline 120 % of control

Cc1cccc(C(=O)CC(O)(C(F)(F)F)C(F)(F)F)c1
inactive: dose: 50.0 mg/kg/injection, schedule: Q04DX003 (ip), vehicle: saline with Tween-80 98 % of control | [7] 100 % of control | [8] 91 % of control | [9] 102 % of control

CC(C)(N)COC(=O)c1ccc([N+](=O)[O-])cc1
inactive: dose: 50.0 mg/kg/injection, schedule: Q01DX009 (ip), vehicle: acetone 101 % of control | dose: 100.0 mg/kg/injection, schedule: Q01DX009 (ip), vehicle: acetone 101 % of control | dose: 200.0 mg/kg/injection, schedule: Q01DX009 (ip), vehicle: acetone 95 % of control

COCCOCCOCCOCCOCCOC
inactive: dose: 12.5 mg/kg/injection, schedule: Q01DX009 (ip), vehicle: saline with Tween-80 104 % of control | dose: 25.0 mg/kg/injection, schedule: Q01DX009 (ip), vehicle: saline with Tween-80 94 % of control | dose: 50.0 mg/kg/injection, schedule: Q01DX009 (ip), vehicle: saline with Tween-80 105 % of control

CN(C)CCSCCN1c2ccccc2Sc2ccc(Cl)cc21
inactive: [6] 104 % of control

O=P1(CCc2ccccc2)CC(Br)C(Br)C1 (centres undefined)
inactive: [1] 101 % of control | [2] 106 % of control | [3] 98 % of control

Cc1nnc(C)n1N
inactive: [10] 106 % of control | [12] 106 % of control | [11] 95 % of control

O=C(c1ccccc1)C1CCC(C(=O)c2ccccc2)C1=O (centres undefined)
inactive: dose: 100.0 mg/kg/injection, schedule: Q01DX001 (ip), vehicle: carboxymethylcellulose (CMC) 98 % of control | dose: 200.0 mg/kg/injection, schedule: Q01DX001 (ip), vehicle: carboxymethylcellulose (CMC) 98 % of control | dose: 400.0 mg/kg/injection, schedule: Q01DX001 (ip), vehicle: carboxymethylcellulose (CMC) 98 % of control

O=C(Nc1ccc(Cl)cc1)c1ccccc1
inactive: dose: 50.0 mg/kg/injection, schedule: Q01DX009 (ip), vehicle: Klucel (hydroxypropylcellulose) (HPC) 105 % of control | [13] 100 % of control | [1] 100 % of control | [14] 93 % of control | [2] 101 % of control | [3] 91 % of control

CCCCCCCCCCCCCCCCN(C)c1ccc([N+](=O)[O-])cc1
inactive: [1] 94 % of control | [2] 96 % of control | [3] 96 % of control

CC1(C)N=C(N)Nc2nnc(-c3ccc(F)cc3)n21
inactive: dose: 100.0 mg/kg/injection, schedule: Q04DX003 (ip), vehicle: saline sonified 89 % of control | dose: 200.0 mg/kg/injection, schedule: Q04DX003 (ip), vehicle: saline sonified 101 % of control | dose: 400.0 mg/kg/injection, schedule: Q04DX003 (ip), vehicle: saline sonified 89 % of control

Cc1ccc(NC(=O)CCC(=O)O)cc1Cl
inactive: [13] 102 % of control | [14] 92 % of control | dose: 400.0 mg/kg/injection, schedule: Q01DX009 (ip), vehicle: Klucel (hydroxypropylcellulose) (HPC) 89 % of control
